The source of these data is ChEMBL document CHEMBL6134909 (Eur J Med Chem, 2025).

In series [1] the test system is Influenza A virus. Description: Anti-viral activity against Influenza A virus H7N1 pseudotype infected in human A549 cells assessed as inhibition of viral entry incubated for 48 hrs by Neolite Reporter Gene Assay. Format: functional, organism-based. The note with it: H7N1, A549, 48 h.
Series [2] is described as follows: Cytotoxicity against human A549 cells incubated for 48 hrs by CellTiter-Glo Luminescent Cell Viability Assay. Format: toxicity, cell-based.
Series [3] is described as follows: Metabolic stability in human liver microsomes assessed as compound remaining at 2 to 10 uM measured after 60 mins in presence of NADPH by LC-MS/MS analysis. Format: ADME, Microsome. The following applies: dose 2-10 µM, read-out: Stability.
Series [4] in a line: Metabolic stability in BALB/c mouse liver microsomes assessed as compound remaining at 2 to 10 uM measured after 60 mins in presence of NADPH by LC-MS/MS analysis. Format: ADME, Microsome. The following applies: dose 2-10 µM, read-out: Stability.
Series [5] is described as follows: Metabolic stability in human liver microsomes assessed as compound remaining at 2 to 10 uM measured after 60 mins in absence of NADPH by LC-MS/MS analysis. Format: ADME, Microsome. The following applies: dose 2-10 µM, read-out: Stability.
The nature of series [6]: Metabolic stability in BALB/c mouse liver microsomes assessed as compound remaining at 2 to 10 uM measured after 60 mins in absence of NADPH by LC-MS/MS analysis. Format: ADME, Microsome. The following applies: dose 2-10 µM, read-out: Stability.
Series [7] can be described thus: Metabolic stability in human liver microsomes assessed as compound remaining at 2 to 10 uM measured after 60 mins in presence of furafylline/NADPH by LC-MS/MS analysis. The note with it: with furafylline, dose 2-10 µM, read-out: Stability. Format: ADME, Microsome.
Series [8] is described as follows: Metabolic stability in human liver microsomes assessed as compound remaining at 2 to 10 uM measured after 60 mins in presence of sulfaphenazole/NADPH by LC-MS/MS analysis. Format: ADME, Microsome. The note with it: with sulfaphenazole, dose 2-10 µM, read-out: Stability.
Series [9] is described as follows: Metabolic stability in human liver microsomes assessed as compound remaining at 2 to 10 uM measured after 60 mins in presence of quinidine/NADPH by LC-MS/MS analysis. Format: ADME, Microsome. The following applies: with quinidine, dose 2-10 µM, read-out: Stability.
Series [10] can be described thus: Metabolic stability in human liver microsomes assessed as compound remaining at 2 to 10 uM measured after 60 mins in presence of ketoconazole/NADPH by LC-MS/MS analysis. Format: ADME, Microsome. The note with it: with ketoconazole, dose 2-10 µM, read-out: Stability.
Series [11] is described as follows: Metabolic stability in BALB/c mouse liver microsomes assessed as compound remaining at 2 to 10 uM measured after 60 mins in presence of furafylline/NADPH by LC-MS/MS analysis. Format: ADME, Microsome. The note with it: with furafylline, dose 2-10 µM, read-out: Stability.
Series [12] can be described thus: Metabolic stability in BALB/c mouse liver microsomes assessed as compound remaining at 2 to 10 uM measured after 60 mins in presence of sulfaphenazole/NADPH by LC-MS/MS analysis. Format: ADME, Microsome. The following applies: with sulfaphenazole, dose 2-10 µM, read-out: Stability.
The nature of series [13]: Metabolic stability in BALB/c mouse liver microsomes assessed as compound remaining at 2 to 10 uM measured after 60 mins in presence of quinidine/NADPH by LC-MS/MS analysis. The following applies: with quinidine, dose 2-10 µM, read-out: Stability. Format: ADME, Microsome.
A short description of series [14]: Metabolic stability in BALB/c mouse liver microsomes assessed as compound remaining at 2 to 10 uM measured after 60 mins in presence of ketoconazole/NADPH by LC-MS/MS analysis. Format: ADME, Microsome. The following applies: with ketoconazole, dose 2-10 µM, read-out: Stability.
A short description of series [15]: Metabolic stability in human plasma at 2 uM measured after 60 mins by LC-MS/MS analysis. Format: ADME, cell-free. The following applies: 1 h.
The nature of series [16]: Metabolic stability in mouse plasma at 2 uM measured after 60 mins by LC-MS/MS analysis. The following applies: 1 h. Format: ADME, cell-free.
In series [17] the test system is Influenza A virus. Description: Anti-viral activity against wild-type Influenza A virus H7N1 pseudotype infected in human A549 cells assessed as inhibition of viral entry incubated for 48 hrs by Neolite Reporter Gene Assay. Format: functional, organism-based. The note with it: H7N1, A549, 48 h.
Series [18] can be described thus: Half life in CD1 mouse at 25 mg/kg, ip. Format: ADME, organism-based. The following applies: in vivo.
Series [19] in a line: Tmax in CD1 mouse at 25 mg/kg, ip. Format: ADME, organism-based. The note with it: in vivo.
The nature of series [20]: Cmax in CD1 mouse at 25 mg/kg, ip. The following applies: in vivo. Format: ADME, organism-based.
Series [21] is described as follows: AUC (infinity) in CD1 mouse at 25 mg/kg, ip. Format: ADME, organism-based. The following applies: in vivo.
Series [22] in a line: MRT (infinity) in CD1 mouse at 25 mg/kg, ip. Format: ADME, organism-based. The note with it: in vivo.
Series [23] in a line: Apparent volume of distribution in CD1 mouse at 25 mg/kg, ip. Format: ADME, organism-based. The following applies: in vivo.
Series [24] in a line: Clearance in CD1 mouse at 25 mg/kg, ip. Format: ADME, organism-based. The following applies: in vivo.

For `COc1ccc(-c2nc3ncccn3c2NC2CCCCC2)cc1`, the half-maximal effective concentration (EC50) in the series on Influenza A virus [1] worked out at 0.08 µM. In series [2], this molecule returned a CC50 at 48 h of over 1250 µM. Moreover, the remaining at 1 h, up to 10 µM was determined as 21.1% in [3]; 2.3% in series [4]; 113% in series [5]; 113% in [6]; 71% in [7]; 32% in series [8]. In addition, the remaining at 1 h, up to 10 µM in [9] is 36.5%; in series [10], 65.1%; in series [11], 12.2%; in series [12], 4.5%; in series [13] it was 4.2%; in [14] it was 39.4%. The Stability entry in [15] and in [16] was “Stable” in each case.

For `Oc1ccc(-c2nc3ncccn3c2NC2CCCCC2)c(F)c1`, the values for the EC50 in the series on Influenza A virus [1] and with Influenza A virus [17] were 0.09 µM and 0.11 µM, respectively. Also, the 50% cytotoxic concentration (CC50) at 48 h in series [2] was over 100 µM. For the same molecule, the remaining at 1 h, up to 10 µM in [3] amounted to 68.9%; in series [4] it was 72.7%; in series [5], 115%; in series [6] it was 101%. Moreover, the Stability entry in series [15] and in series [16] was “Stable” throughout. This molecule also had a half-life in [18] of 3.61 h. Besides, the Tmax in series [19] worked out at 0.083 h. Further, in series [20], the Cmax was found to be 14500 ng/mL. This molecule registered an AUC(0-inf) in [21] of 3660 ng·h/mL. The MRT inf in [22] is 0.842 h. In series [23], the Vz came out at 35.639 L/kg. For the same molecule, the CL/F in series [24] was 114 mL/min/kg.

As for `Fc1ccc(-c2nc3ncccn3c2NC2CCCCC2)cc1F`, the EC50 in the series with Influenza A virus [1] amounted to 0.07 µM. In [2], this molecule registered a 50% cytotoxic concentration (CC50) at 48 h of over 100 µM. The remaining at 1 h, up to 10 µM was 2.2% in series [3]; 2.7% in series [4]; 113% in series [5]; 114% in series [6]; 19.7% in series [7]; 7.2% in [8]. Further, the remaining at 1 h, up to 10 µM in [9] is 10.9%; in series [10], 48.8%; in [11], 7.3%; in [12] it was 5.5%; in series [13] it was 5.3%; in [14], 51.7%. In addition, the Stability result in series [15] and in [16] was “Stable” in each case.

On to `Fc1cc(OCc2ccc(C(F)(F)F)cc2)ccc1-c1nc2ncccn2c1NC1CCCCC1`, for which the EC50 with Influenza A virus [1] is 0.47 µM. Moreover, the CC50 at 48 h in series [2] is over 100 µM. The remaining at 1 h, up to 10 µM in series [3] worked out at 36%; in [4], 60.5%; in series [5] it was 105%; in series [6], 104%. Further, the Stability entry in series [15] and in [16] was “Stable” throughout. In addition, the half-life in series [18] is 3.82 h. Moreover, in [19], the Tmax worked out at 2.67 h. In series [20], this molecule gave a maximum concentration (Cmax) of 2930 ng/mL. In series [21], this molecule had an area under the curve AUC(0-inf) of 33900 ng·h/mL. In series [22], this molecule yielded a mean residence time (MRT inf) of 6.25 h. In addition, the Vz in [23] was determined as 4.226 L/kg. The CL/F in series [24] was 12.8 mL/min/kg.
